According to US20230053540A1, “TREATMENT OF LIVER INJURY” (Massachusetts Institute of Technology, priority 2019, published 2023):

Test system: hepatocytes
Assay: Seq-Well scRNA-Seq of hepatocytes after APAP overdose (signature scores, DEG vs untreated)
Type: in vivo, mouse
Settings: A24 vs untreated (UT)

With CC(=O)Nc1ccc(O)cc1 [APAP, acetaminophen] the “avg_logFC Ces3a” value was −0.3687, the “avg_logFC Ces1d” value was −0.4289 and the “avg_logFC Cfh” value was 0.4009. The “avg_logFC Cfi” value was 0.2516, the “avg_logFC Chchd2” value was −0.3949 and the “avg_logFC Clpx” value was −0.4047. The “avg_logFC Cltc” value was 0.4381, the “avg_logFC Cmah” value was 0.3616 and the “avg_logFC Cmbl” value was −0.3124. For the same compound, the “avg_logFC Cml1” value was −0.3269, the “avg_logFC Cml2” value was 0.2654 and the “avg_logFC Copa” value was 0.3451. The “avg_logFC Cox4i1” value was −0.4542, the “avg_logFC Cox5b” value was −0.3378 and the “avg_logFC Cox6c” value was −0.5028. For the same compound, the “avg_logFC Cox7a2” value was −0.3635, the “avg_logFC Cp” value was 0.3174 and the “avg_logFC Cpb2” value was 0.3222. For the same compound, the “avg_logFC Cps1” value was 0.3245, the “avg_logFC Creld2” value was 0.6087 and the “avg_logFC Csad” value was −0.5313. The “avg_logFC Csde1” value was 0.3269, the “avg_logFC Cth” value was −0.5109 and the “avg_logFC Ctsc” value was 0.3004. The “avg_logFC Cxcl1” value was 0.4498, the “avg_logFC Cyb5” value was −0.7048 and the “avg_logFC Cyb5r3” value was 0.339. For the same compound, the “avg_logFC Cyp4a10” value was −0.7422, the “avg_logFC Dcxr” value was −0.4107 and the “avg_logFC Ddt” value was −0.4224. The “avg_logFC Dhcr24” value was 0.4238, the “avg_logFC Dnajc3” value was 0.4564 and the “avg_logFC Dnajc12” value was 0.3221. For the same compound, the “avg_logFC Dstn” value was 0.3243, the “avg_logFC Ech1” value was −0.4291 and the “avg_logFC Eef1a1” value was 0.4393. For the same compound, the “avg_logFC Eef2” value was 0.2701, the “avg_logFC Efna1” value was 0.3361 and the “avg_logFC Egfr” value was 0.505. The “avg_logFC Eif4g1” value was 0.3108, the “avg_logFC Eif4g2” value was 0.466 and the “avg_logFC Elovl2” value was 0.4522. For the same compound, the “avg_logFC Elovl3” value was −0.676, the “avg_logFC Ephx2” value was −0.3693 and the “avg_logFC Etnk1” value was 0.3521. The “avg_logFC Etnppl” value was −0.4283, the “avg_logFC Fabp2” value was −0.3922 and the “avg_logFC Fdx1” value was −0.3447. For the same compound, the “avg_logFC Fga” value was 0.8285, the “avg_logFC Fgb” value was 0.745 and the “avg_logFC Fgg” value was 0.6805. The “avg_logFC Fgl1” value was 0.8649, the “avg_logFC Fn1” value was 0.6996 and the “avg_logFC Fndc3b” value was 0.3485. The “avg_logFC Fos” value was 0.432, the “avg_logFC Fxyd1” value was −0.3118 and the “avg_logFC Gadd45g” value was −0.614. For the same compound, the “avg_logFC Gas5” value was −0.3362, the “avg_logFC Gchfr” value was −0.3869 and the “avg_logFC Gjb2” value was 0.3911. For the same compound, the “avg_logFC Glud1” value was 0.451, the “avg_logFC Gm4076” value was −0.3255 and the “avg_logFC Gm5096” value was −0.3631. The “avg_logFC Gm13775” value was −1.032, the “avg_logFC Gm15564” value was 1.821 and the “avg_logFC Gm24270” value was 0.268. For the same compound, the “avg_logFC Gm24601” value was 0.9844, the “avg_logFC Gm26917” value was 0.8237 and the “avg_logFC Gm26924” value was 1.419. For the same compound, the “avg_logFC Gnmt” value was −0.4604, the “avg_logFC Gpx1” value was −0.508 and the “avg_logFC Grip2” value was 0.8779. For the same compound, the “avg_logFC Gsta3” value was −0.6694, the “avg_logFC Hamp” value was −0.8261 and the “avg_logFC Hao1” value was 0.323. The “avg_logFC Hbb-bs” value was 1.043, the “avg_logFC Hc” value was 0.3679 and the “avg_logFC Hdlbp” value was 0.5651. The “avg_logFC Hint1” value was −0.4737, the “avg_logFC Hint2” value was −0.3702 and the “avg_logFC Hmgcs2” value was −0.3173. The “avg_logFC Hnf4a” value was 0.4549, the “avg_logFC Hook1” value was 0.3274 and the “avg_logFC Hp” value was 0.4313. For the same compound, the “avg_logFC Hpd” value was −0.3133, the “avg_logFC Hs3st3b1” value was 0.343 and the “avg_logFC Hsd3b7” value was −0.3953. The “avg_logFC Hsp90b1” value was 0.5342, the “avg_logFC Hspa5” value was 0.6105 and the “avg_logFC Hspa8” value was −0.36. For the same compound, the “avg_logFC Hspa13” value was 0.3548, the “avg_logFC Hyou1” value was 0.8465 and the “avg_logFC Ibtk” value was 0.3311. For the same compound, the “avg_logFC Igfbp1” value was −0.3162, the “avg_logFC Igfbp2” value was −0.3451 and the “avg_logFC Iigp1” value was 0.4542. The “avg_logFC Il6st” value was 0.3335, the “avg_logFC Il13ra1” value was 0.303 and the “avg_logFC Inmt” value was −0.4435. For the same compound, the “avg_logFC Insig1” value was 0.4655, the “avg_logFC Ipo7” value was 0.2592 and the “avg_logFC Itih2” value was 0.2987. The “avg_logFC Itih3” value was 0.4929, the “avg_logFC Itih4” value was 0.5251 and the “avg_logFC Khk” value was −0.2976. For the same compound, the “avg_logFC Kmo” value was 0.3022, the “avg_logFC Kng1” value was 0.2658 and the “avg_logFC Lars2” value was 1.711. For the same compound, the “avg_logFC Lman1” value was 0.2986, the “avg_logFC Lpgat1” value was 0.3946 and the “avg_logFC Lrg1” value was 0.4368. The “avg_logFC Lrp1” value was 0.5051, the “avg_logFC Lrrc59” value was 0.3181 and the “avg_logFC Manf” value was 0.4689. For the same compound, the “avg_logFC Mlec” value was 0.3246, the “avg_logFC Mpc1” value was −0.2818 and the “avg_logFC Mtus1” value was 0.3621. The “avg_logFC Mug2” value was 0.3704, the “avg_logFC Mup3” value was −0.8062 and the “avg_logFC Mup4” value was −1.087. The “avg_logFC Mup5” value was −1.371, the “avg_logFC Mup6” value was −1.678 and the “avg_logFC Mup8” value was −0.6133. The “avg_logFC Mup9” value was −1.847, the “avg_logFC Mup11” value was −1.611 and the “avg_logFC Mup13” value was −0.6949. The “avg_logFC Mup15” value was −1.235, the “avg_logFC Mup16” value was −1.019 and the “avg_logFC Mup17” value was −1.8. For the same compound, the “avg_logFC Mup18” value was −1.727, the “avg_logFC Mup19” value was −1.699 and the “avg_logFC Mup20” value was −0.2819. For the same compound, the “avg_logFC Mup21” value was −0.6977, the “avg_logFC Myh9” value was 0.6391 and the “avg_logFC Nab1” value was 0.3342. For the same compound, the “avg_logFC Nars” value was 0.3532, the “avg_logFC Ndufa4” value was −0.4433 and the “avg_logFC Ndufb2” value was −0.3412. The “avg_logFC Ndufb4” value was −0.3251, the “avg_logFC Ndufb11” value was −0.4275 and the “avg_logFC Ndufs6” value was −0.3592. The “avg_logFC Nedd4” value was 0.3774, the “avg_logFC Nr1d2” value was 0.4306 and the “avg_logFC Nr5a2” value was 0.322. For the same compound, the “avg_logFC Oat” value was −0.5212, the “avg_logFC Oaz1” value was −0.3748 and the “avg_logFC Orm1” value was 0.3651. For the same compound, the “avg_logFC Orm2” value was 0.2715, the “avg_logFC P4hb” value was 0.4052 and the “avg_logFC Pdcd4” value was 0.4882. For the same compound, the “avg_logFC Pdia3” value was 0.5938, the “avg_logFC Pdia4” value was 0.4882 and the “avg_logFC Pdia6” value was 0.3365. The “avg_logFC Pgrmc1” value was 0.3502, the “avg_logFC Plg” value was 0.2617 and the “avg_logFC Pon1” value was −0.3227. For the same compound, the “avg_logFC Prdx1” value was −0.2677, the “avg_logFC Prg4” value was 0.4306 and the “avg_logFC Prkd3” value was 0.3665. The “avg_logFC Pten” value was 0.3559, the “avg_logFC Pzp” value was 0.416 and the “avg_logFC Qsox1” value was 0.3424. For the same compound, the “avg_logFC Rab1” value was 0.3526, the “avg_logFC Rdh7” value was −0.269 and the “avg_logFC Rdx” value was 0.3736. The “avg_logFC Retsat” value was −0.3658, the “avg_logFC Rnase4” value was 0.5178 and the “avg_logFC Rpn1” value was 0.4124. The “avg_logFC Rps2” value was −0.3845, the “avg_logFC Rps27l” value was −0.5485 and the “avg_logFC Rrbp1” value was 0.3069. For the same compound, the “avg_logFC Rsp14” value was −0.2923, the “avg_logFC S100a1” value was −0.3762 and the “avg_logFC Saa1” value was 0.5582. For the same compound, the “avg_logFC Saa2” value was 0.9645, the “avg_logFC Saa4” value was 0.3755 and the “avg_logFC Sar1b” value was −0.3176. The “avg_logFC Sc5d” value was 0.345, the “avg_logFC Scd1” value was 0.7267 and the “avg_logFC Sds” value was −0.407. The “avg_logFC Sec61a1” value was 0.3139, the “avg_logFC Sel1l” value was 0.336 and the “avg_logFC Selenbp2” value was −0.3833. For the same compound, the “avg_logFC Sephs2” value was 0.89, the “avg_logFC Sepp1” value was 0.4486 and the “avg_logFC Serp1” value was 0.3124. The “avg_logFC Serpina1a” value was −0.6752, the “avg_logFC Serpina1b” value was −0.3018 and the “avg_logFC Serpina1c” value was −0.4026. For the same compound, the “avg_logFC Serpina1e” value was −0.2843, the “avg_logFC Serpina3c” value was −0.4089 and the “avg_logFC Serpina3n” value was 0.4137. For the same compound, the “avg_logFC Serpina10” value was 0.565, the “avg_logFC Serpina1d” value was −0.494 and the “avg_logFC Slc3a1” value was 0.341. For the same compound, the “avg_logFC Slc7a2” value was 0.3526, the “avg_logFC Slc38a4” value was 0.2637 and the “avg_logFC Snord118” value was 0.3914. For the same compound, the “avg_logFC Sod1” value was −0.3036, the “avg_logFC Sparcl1” value was −0.2536 and the “avg_logFC Spcs3” value was 0.3942. The “avg_logFC Ssr1” value was 0.3278.
